Results: patent EP1044000B1, “COMBINATION THERAPY FOR THE TREATMENT OF AIDS” (MERCK & CO., INC., priority 1997, dated 1999)
Like-named read-outs stand apart in the source and are kept apart here.

Assay: Pharmacokinetic study of Compound A in combination with Indinavir with and without fasting (Example 12)
Type: in vivo
Settings: male, human, plasma, 600 mg Compound A (tablets) + 666 mg IDV (Indinavir), n=7; for concentration at 8 h / concentration at 12 h / concentration at 24 h: oral; for concentration at 8 h: plasma 8 hours after dosing, read-out: C8 hrs; for concentration at 12 h: plasma 12 hours after dosing, read-out: C12 hrs; for concentration at 24 h: plasma 24 hours after dosing, read-out: C24 hrs; for Cmax / Tmax / AUC: po, single oral dose; for Cmax / Tmax: arithmetic mean; for AUC: arithmetic mean (CV %)
Protocol: All of the subjects received the regimen once in the fasted state and once with a high-fat breakfast. The two single-dose treatments (fasted, fed) were administered in randomized crossover fashion, separated by one week. For treatments with food a breakfast consisting of two eggs, two strips of bacon, toast with two pats of butter (2 x 12.5 g), 120 g of fried potatoes and 240 ml of whole milk were consumed in no more than 15 minutes, and the test medication was administered within 5 minutes after completion of the breakfast. […] All of the doses of Compound A were administered as the sulfate salt form of Compound A. All of the Compound A doses were tablets containing 200 mg of Compound A. Other ingredients in the tablets included microcrystalline cellulose (Avicel PH 101), mannitol SD 200, croscarmellose sodium, hydroxypropyl cellulose and magnesium stearate. The tablets were film coated with a suspension of hydroxypropyl methylcellulose, hydroxypropyl cellulose and titanium dioxide. The safety of the subjects was monitored prior and subsequent to dosing by clinical adverse event reporting, measurement of vital signs, physical examinations, blood and urine laboratory safety tests, and ECGs. Plasma concentrations of Compound A were determined predose and at 0.5, 1, 1.5, 2, 3, 4, 6, 8, 12, 16, 20, 24, 30, 36 and 48 hours following each single dose in each period, using a reverse-phase HPLC column switching method with fluorescence detection.

What does the source list for `CC(C)(C)NC(=O)[C@@H]1CN(Cc2cc3ccccc3o2)CCN1C[C@@H](O)C[C@@H](Cc1ccccc1)C(=O)N[C@H]1c2ccccc2C[C@H]1O` [Compound A, N-(2(R)-hydroxy-1(S)-indanyl)-2(R)-phenylmethyl-4-(S)-hydroxy-5-(1-(4-(2-benzo[b]furanylmethyl)-2(S)-N'-(t-butylcarboxamido)-piperazinyl))-pentaneamide]?
concentration at 8 h (fasted): 583 nM; concentration at 12 h (fasted): 188 nM; concentration at 24 h (fasted): 37 nM; concentration at 8 h (fed (high-fat breakfast)): 1320 nM; concentration at 12 h (fed (high-fat breakfast)): 433 nM; concentration at 24 h (fed (high-fat breakfast)): 58 nM; Cmax (fasted): 2920 nM; Tmax (fasted): 2.6 h; AUC (fasted): 15.7 µM·h; Cmax (fed (high-fat breakfast)): 4230 nM; Tmax (fed (high-fat breakfast)): 3.7 h; AUC (fed (high-fat breakfast)): 25.3 µM·h
